The values that follow come from article PMC2225441, “Partial Restoration of Mutant Enzyme Homeostasis in Three Distinct Lysosomal Storage Disease Cell Lines by Altering Calcium Homeostasis” (PLoS Biology, 2008).

Substitutions are numbered along the chain they refer to.

For assay [1], the system named is N370S/84GG GC. The assay is described as follows: GC activity in compound heterozygous N370S/84GG GC fibroblasts. Particulars: 10 μM; 5-d treatment. In kind it is cell-based, human.
For assay [2], the target named is T1, L444P GC (Homo sapiens, UniProt P04062, L483P).
T1 construct: homozygous L444P GC patient–derived fibroblasts; host or cells: homozygous L444P Gaucher patient skin fibroblasts
T1 sequence (P04062 40-536 L483P): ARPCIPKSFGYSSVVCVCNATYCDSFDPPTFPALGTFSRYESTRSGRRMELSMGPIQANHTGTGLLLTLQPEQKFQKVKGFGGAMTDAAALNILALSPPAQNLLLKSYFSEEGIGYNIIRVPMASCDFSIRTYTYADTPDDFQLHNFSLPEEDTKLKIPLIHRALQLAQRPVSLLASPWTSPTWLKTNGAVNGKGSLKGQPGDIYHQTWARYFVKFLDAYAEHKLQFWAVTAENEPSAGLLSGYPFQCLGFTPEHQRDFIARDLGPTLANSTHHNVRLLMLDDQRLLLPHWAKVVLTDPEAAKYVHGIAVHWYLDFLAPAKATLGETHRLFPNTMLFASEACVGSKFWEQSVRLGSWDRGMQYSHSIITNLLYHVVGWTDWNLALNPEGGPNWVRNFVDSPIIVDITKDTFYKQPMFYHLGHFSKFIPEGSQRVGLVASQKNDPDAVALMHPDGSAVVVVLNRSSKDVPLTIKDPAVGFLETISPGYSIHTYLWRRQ
Briefly: lysed L444P fibroblasts incubated directly with test substance, lysed cell GC activity assay. The following applies: 0.01 to 1000 μM. In kind it is biochemical. The procedure: The intact cell GC activity assay has been previously described. Briefly, cells were plated into 48-well assay plates (500 μl per well). After cell attachment, the media was replaced by media containing small molecules. Media was changed every 3 d. After incubation at 37 °C for the indicated amount of time, the intact cell GC activity assay was performed. The monolayers were washed by DPBS. The reaction was started by the addition of 150 μl of 3 mM 4-methylumbelliferyl β-D-glucopyranoside in 0.2 M acetate buffer (pH 4.0) to each well, followed by incubation at 37 °C for 1–7 h. CBE was used as a control to evaluate the extent of nonspecific GC activity. […] Liberated 4-methylumbelliferone was measured (excitation 365 nm, emission 445 nm) with a SpectraMax Gemini plate reader (Molecular Devices). The lysed cell GC activity assay has been previously described. […] Total cell protein was measured using the Micro BCA assay reagent (Pierce #23235). Thirty μg of total cell protein was assayed for the GC activity in 100 μl of 0.1 M acetate buffer (pH 5.0) containing 3 mM 4-methylumbelliferyl β-D-glucopyranoside in the presence of 0.15% Triton X-100 (v/v, Fisher) and 0.15% taurodeoxycholate (w/v, Calbiochem). CBE was used as a control to evaluate the extent of nonspecific GC activity. […] The GC activity assay for recombinant WT GC enzymes has been previously described. […]

Assay [3] concerns the target T2, Cerezyme, a recombinant WT GC protein (Homo sapiens, UniProt P04062, R534H).
T2 construct: purchased Genzyme
T2 sequence (P04062 40-536 R534H): T1 sequence (P04062 40-536 L483P) with P444L, R495H
The assay is described as follows: GC activity assay for recombinant WT GC enzyme (Cerezyme). In kind it is biochemical. Particulars: 0.01–1000 μM.

In assay [4] the test system is L444P GC. Briefly: Western blot of GC in L444P GC cells. In kind it is cell-based, human. Particulars: 0, 0.1, 1, and 10 μM; 7-d treatment; type II Gaucher fibroblasts. How it is done: Total cell protein was measured using the Micro BCA assay reagent. Endo H (New England Biolabs #P0703) was used to digest the cell lysates according to the company instructions. The cell lysates containing equal amount of total protein were separated by 10% SDS-PAGE. Western blot analysis was performed with proper antibodies. Mouse monoclonal anti-GC 8E4 [57] was kindly provided by Klaus-Peter Zimmer (Children's Hospital of the University of Münster, Münster, Germany). Mouse monoclonal anti-GC 2E2 was from Novus Biologicals (#H00002629-M01). Antibodies directed against calnexin (#SPA-860), calreticulin (#SPA-601), Hsp40 (#SPA-400), Hsp70 (#SPA-812), and Hsp90 (#SPA-830) were from Stressgen. Antibodies directed against BiP (#SC-13968) and GRP94 (#SC-11402) were from Santa Cruz Biotechnology. Mouse monoclonal anti-β actin AC-15 was from Sigma (#A1978). Secondary antibodies (#31430 for goat anti-mouse and #31460 for goat anti-rabbit) were from Pierce. Bands were visualized using the SuperSignal West Pico Chemiluminescent Substrate (Pierce #34078) or SuperSignal West Femto Maximum Sensitivity Substrate (Pierce #34095).
A general note: A western blot detects proteins with antibodies after separation by electrophoresis.

Assay [5] deals with S66W/V131M SGSH. Briefly: intact cell SGSH activity assay in S66W/V131M MPS cells. The following applies: 50 μM; 5-d treatment; calculated from literature specific activity of S66W [27]. Format: cell-based, human.
Assay [6] relates to Ca^2+ channel. Particulars: previously reported; read-out: Ca^2+ channel blocker IC50; cited from earlier work.

For the molecule `COc1ccc([C@@H]2Sc3ccccc3N(CCN(C)C)C(=O)[C@@H]2OC(C)=O)cc1` [diltiazem], the “N370S/84GG GC activity as % of cellular WT GC activity” value in assay [1] is listed as “≈ 36%”. Moreover, the “GC inhibition in lysed L444P fibroblasts” value in assay [2] was “No significant GC inhibition was observed”. In assay [3], the “inhibition of Cerezyme” value is reported as “lack of inhibition”. In addition, in assay [4], the “L444P GC concentration (Western blot band intensity)” value was “elevated in a dose-dependent manner”. In addition, the “S66W/V131M sulfamidase activity as % of WT sulfamidase activity” value in assay [5] was “≈ 30%”. The IC50 (commonly the point on the concentration scale where inhibition reaches its midpoint) in assay [6] is 980 nM.
